The conditions of data set [1]: supplementation of the diet; cited from earlier work.
For data set [2], the system named is Lactobacillus paracasei 3052-E000. The format is cell-based. Particulars: for inhibitor effect on the growth or reduction in the biomass production yield: up to 20 mg/L (in selenium equivalent); for reduction in the biomass production yield: 48 h. As to the method:
In this experiment, the growth characteristics of the bacterium Lactobacillus paracasei were measured in the presence of different concentrations of selenium in the form of sodium selenite, selenomethionine, 2-hydroxy-4-methylseleno-butanoic acid and compared with the growth characteristics in the absence of additives.
The pre-culture of the strain Lactobacillus paracasei 3052-E000 is carried out in liquid MRS medium, at 42° C., without agitation for 24 h. The culture of the strain Lactobacillus paracasei 3052-E000 was carried out from an inoculum (1.10^7 UFC/ml) of the above pre-culture in 100 mL of MRS medium, at pH=6.4 and at a temperature of 42° C. (without agitation).
The cultures were monitored by absorbance measurements at 550 nm and CFU counting carried out on MRS plate.
The concentrations tested for the addition of selenium selenite are 0.5 mg/L, 2 mg/L, 10 mg/L and 20 mg/L in selenium equivalent, i.e. respectively 1.11 mg/L, 4.44 mg/L, 22.22 mg/L and 44.44 mg/L of sodium selenite. The graph of FIG. 4 makes it possible to visualise the growth of the strain Lactobacillus paracasei 3052-E000 in the presence of sodium selenite.
The concentrations tested for the addition of selenomethionine are 0.5 mg/L, 2 mg/L, 10 mg/L and 20 mg/L in selenium equivalent, i.e. respectively 1.25 mg/L, 5 mg/L, 25 mg/L and 50 mg/L of selenomethionine.
(§1) The concentrations tested for the addition of 2-hydroxy-4-methylseleno-butanoic acid are 0.5 mg/L, 2 mg/L, 10 mg/L and 20 mg/L in selenium equivalent, i.e. respectively 1.25 mg/L, 5 mg/L, 25 mg/L and 50 mg/L of 2-hydroxy-4-methylseleno-butanoic acid (THD-177, Tetrahedron, France, CAS: 873660-49-2).
In order to complete the study of the impact of the addition of 2-hydroxy-4-methylseleno-butanoic acid, at higher values, concentrations of 40 and 60 mg/L were tested under the same conditions as previously.

In data set [3] the test system is Saccharomyces cerevisiae 3053-E000. The format is cell-based. Particulars: for yield of biomass obtained (change): 48 h; for concentration from which an effect on growth / biomass yield begins to show: YPG medium, pH 4, 37° C. The procedure:
In the experiments described, the growth characteristics of the yeast Saccharomyces cerevisiae 3053 E000 were measured in the presence of different concentrations of selenium in the form of sodium selenite, selenomethionine, or 2-hydroxy-4-methylseleno-butanoic acid and compared to the growth characteristics in the absence of additives (control). The pre-culture of the strain Saccharomyces cerevisiae 3053-E000 is carried out in liquid YPG medium, at 37° C., under orbital agitation (250 rpm) for 24 h.
The culture is formed from an inoculum (1.10^6 UFC/ml) of the pre-culture described previously in 100 mL of YPG medium, at pH=4 at a temperature of 37° C. under agitation (250 rpm) and according to the following conditions:
The cultures of Saccharomyces cerevisiae 3053-E000 were monitored by absorbance measurements at 550 nm and by CPU counting on YPG gelose plates.
The concentrations tested for the addition of selenium selenite are 0.5 mg/L, 10 mg/L and 20 mg/L in selenium equivalent, i.e. respectively: 1.1 mg/L, 22.22 mg/L and 44.44 mg/L of sodium selenite.
The concentrations tested for the addition of selenomethionine are 0.5 mg/L, 2 mg/L, 10 mg/L and 20 mg/L in selenium equivalent, i.e. respectively 1.25 mg/L, 5 mg/L, 25 mg/L and 50 mg/L of selenomethionine
as §1

Where [4] appears, read: 10 mg/L (in selenium equivalent).
Setting [5] is: 20 mg/L (in selenium equivalent).
[6] abbreviates: 10 and 20 mg/L (in selenium equivalent).

Read-outs that look alike come from different tables or passages of the source.

For the molecule `C[Se]CC[C@H](N)C(=O)O` [L(+)-selenomethionine], in data set [1], the “toxicity compared with an intake in the form of sodium selenite” value is on record as “much less toxic”.
With `C[Se]CCC(O)C(=O)O` (stereo not shown) [THD 177, 2-hydroxy-4-methylseleno-butanoic acid], in data set [2] (40 and 60 mg/L), the “inhibitor effect on the growth and the biomass yield” value is “no inhibitor effect was observed”. Further, in data set [2], the “inhibitor effect on the growth or reduction in the biomass production yield” value is listed as “does not show an inhibitor effect”. In data set [3] (setting [4]), the “viability reduced by” value was 36% and the “yield of biomass obtained (change)” value is listed as −15%. For the same molecule, in data set [3] (setting [5]), the “biomass yield reduced by” value came to 36% and the “viability reduced by” value is given as 50%. Moreover, the “concentration from which an effect on growth / biomass yield begins to show” value in data set [3] is listed as 10 mg/L (in selenium equivalent).
Take `O=[Se](O)O` [sodium selenite]: the “reduction in the biomass production yield” value worked out at 25% in data set [2] (0.5 mg/L (in selenium equivalent)) and 90% in data set [2] (setting [6]). Besides, in data set [2] (setting [6]), the “toxicity on Lactobacillus paracasei” value is given as “shows a toxicity”. In data set [2] (MRS medium, pH 6.4, 42° C.), the “concentration from which an inhibitor effect on growth begins to show” value is 0.5 mg/L (in selenium equivalent). Also, the “yield of biomass obtained (change)” value in data set [3] (setting [4]) was −50%. The “toxicity for Saccharomyces cerevisiae” value in data set [3] (setting [5]) is reported as “very toxic”. Besides, in data set [3], the “concentration from which an effect on growth / biomass yield begins to show” value is recorded as 10 mg/L (in selenium equivalent).
Turning to `C[Se]CC[C@H](N)C(=O)O` [selenomethionine], the “inhibitor effect on the growth or reduction in the biomass production yield” value in data set [2] is reported as “does not show an inhibitor effect”. For the same molecule, the “yield of biomass obtained (change)” value was −29% in data set [3] (2 mg/L (in selenium equivalent)) and −50% in data set [3] (setting [4]). The “concentration from which an effect on growth / biomass yield begins to show” value in data set [3] is on record as 2 mg/L (in selenium equivalent).
